The values below come from ChEMBL document CHEMBL1201862, “PubChem BioAssay data set” (2004).

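Growth conditions: 96-well plates. Treatment: test compound, 48 hours, 5 concentrations. Analysis: linear interpolation between bracketing concentrations; unreached endpoints set to highest concentration. GI50: concentration for 50% inhibition of growth.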 Activity calls are given as the source filed them. Cut-off read from the data, not from the text of the source: active = GI50 up to about 1.1 µM and inactive = higher.

Among the test systems are M19-MEL; A498; SK-OV-3; LOX IMVI; U-251; DLD-1; HOP-62; SNB-19; ACHN; SF-539; COLO 205; A549; MOLT-4; Malme-3M; SNB-75; NCI-H226; SR; MDA-MB-231; MCF7; NCI/ADR-RES.
Assay in all cases: inhibition of tumour cell growth, NCI panel, 48 h

`O=C(NCCCOC(=O)CCCCCCCCC(=O)OCCCNC(=O)NC(=O)c1c[nH]c(=O)[nH]c1=O)NC(=O)c1c[nH]c(=O)[nH]c1=O`: the GI50 in the test on M19-MEL, in the test with A498, in the test with SK-OV-3, in the test on LOX IMVI, with U-251 and in the test on DLD-1 was > 100 µM (inactive) each time. Also, the GI50 in the test on HOP-62, in the test on SNB-19, with ACHN, in the test on SF-539, in the test on COLO 205 and in the test with A549 was > 100 µM (inactive) throughout. Further, the GI50 with MOLT-4 and in the test on Malme-3M was > 100 µM (inactive) throughout.
Take `CC(=O)NC1CC2Oc3ccc(C)cc3C(C)(O2)C1O` (stereo unspecified): the GI50 in the test on M19-MEL, in the test on SNB-75, with SK-OV-3, with LOX IMVI, with U-251 and in the test with DLD-1 was > 100 µM (inactive) throughout. Further, the GI50 in the test with HOP-62, with NCI-H226, in the test on SNB-19, in the test on ACHN, with SF-539 and in the test on COLO 205 was > 100 µM (inactive) each time. The GI50 in the test with A549, in the test with MOLT-4 and with Malme-3M was > 100 µM (inactive) throughout.
For the compound `Cc1cccc(C)c1NC(=O)CCc1nnc2s/c(=C\c3ccc(N(C)C)cc3)c(=O)n12`, the GI50 in the test with SNB-75, in the test on A498, in the test with SK-OV-3, in the test with LOX IMVI, with U-251 and with DLD-1 was > 100 µM (inactive) throughout. Besides, the GI50 in the test on HOP-62, in the test on NCI-H226, in the test on SNB-19, in the test on ACHN, in the test with SF-539 and with COLO 205 was > 100 µM (inactive) each time. Besides, the GI50 was > 100 µM (inactive) in the test with A549, 53.3 µM (inactive) with MOLT-4, > 100 µM (inactive) in the test on Malme-3M and > 100 µM (inactive) in the test on SR.
`O=C1/C(=c2\c3ccccc3n3c(=O)c4ccccc4nc23)Nc2ccccc21` [CANDIDINE]: the GI50 with MDA-MB-231 was > 70.3 µM (inactive); with SNB-75 it was 25.6 µM (inactive); with A498 it was > 100 µM (inactive); with SK-OV-3, > 100 µM (inactive); in the test on LOX IMVI, > 72.8 µM (inactive); in the test with U-251, > 93.8 µM (inactive). The GI50 in the test with HOP-62 is > 70.5 µM (inactive); with NCI-H226 it was > 100 µM (inactive); in the test on SNB-19 it was > 100 µM (inactive); in the test on MCF7, > 70.1 µM (inactive); in the test on NCI/ADR-RES it was > 100 µM (inactive); in the test on ACHN it was > 100 µM (inactive). Further, the GI50 was > 63 µM (inactive) in the test with SF-539; 58.5 µM (inactive) with COLO 205; > 84.5 µM (inactive) with A549; > 31.6 µM (inactive) in the test on MOLT-4; 33 µM (inactive) in the test with Malme-3M; > 89.5 µM (inactive) in the test with SR.
For the compound `C/C1=C\C=C(\C(C)C)CC/C(C(=O)O)=C\CC/C(C)=C/CC1` [NEOCROTOCEMBRANEIC ACID], the GI50 in the test with MDA-MB-231 is 20.7 µM (inactive); in the test with SNB-75, 33.7 µM (inactive); with A498, 17.6 µM (inactive); in the test with SK-OV-3, 27.6 µM (inactive); in the test on LOX IMVI, 20.5 µM (inactive); with U-251, 16.9 µM (inactive). Further, the GI50 was 22.8 µM (inactive) in the test with HOP-62; 20.9 µM (inactive) in the test on NCI-H226; 24.9 µM (inactive) in the test on SNB-19; 16.9 µM (inactive) with MCF7; 30.5 µM (inactive) in the test with NCI/ADR-RES; 34.3 µM (inactive) in the test on ACHN. Moreover, the GI50 in the test on SF-539 was 18.5 µM (inactive); in the test on COLO 205 it was 23.4 µM (inactive); with A549, 30.2 µM (inactive); with MOLT-4, 19.1 µM (inactive); with Malme-3M, 23.2 µM (inactive); in the test with SR, 19.5 µM (inactive).
In the case of `COc1cc(-c2cc(-c3ccccc3)nc(-c3c(OC)ccc4c(C)cc(=O)oc34)c2)cc(OC)c1OC`, the GI50 in the test on MDA-MB-231, with SNB-75, with A498, in the test on SK-OV-3, in the test on LOX IMVI and in the test on U-251 was > 100 µM (inactive) throughout. Moreover, the GI50 in the test on HOP-62 was > 100 µM (inactive); with NCI-H226 it was > 100 µM (inactive); in the test with SNB-19 it was > 100 µM (inactive); in the test with MCF7, 74.1 µM (inactive); with NCI/ADR-RES it was > 100 µM (inactive); in the test on ACHN, > 100 µM (inactive). The GI50 in the test on SF-539, in the test with COLO 205, in the test on A549, in the test on MOLT-4, in the test on Malme-3M and in the test on SR was > 100 µM (inactive) throughout.
Consider `O=S(=O)(Nc1ccccc1)c1ccc(-c2c3nc(c(-c4ccc(S(=O)(=O)Nc5ccccc5)cc4)c4ccc([nH]4)c(-c4ccc(S(=O)(=O)Nc5ccccc5)cc4)c4nc(c(-c5ccc(S(=O)(=O)Nc6ccccc6)cc5)c5ccc2[nH]5)C=C4)C=C3)cc1`, for which the GI50 in the test on MDA-MB-231 is 24 µM (inactive); in the test on SNB-75, 11.5 µM (inactive); with A498, > 31.6 µM (inactive); with SK-OV-3, > 31.6 µM (inactive); in the test with LOX IMVI it was > 10 µM (inactive); in the test on U-251, > 31.6 µM (inactive). Moreover, the GI50 in the test with HOP-62 is > 10 µM (inactive); in the test with NCI-H226, > 100 µM (inactive); with SNB-19 it was 14.1 µM (inactive); in the test with MCF7, > 31.6 µM (inactive); in the test on NCI/ADR-RES, > 31.6 µM (inactive); in the test on ACHN it was 11.1 µM (inactive). Moreover, the GI50 with SF-539, in the test with COLO 205, in the test with A549, in the test with MOLT-4, with Malme-3M and in the test on SR was > 31.6 µM (inactive) in each case.
`COc1cc(C=O)cc(/C=N/c2ccc(Br)cc2)c1O`: the GI50 was 4.44 µM (inactive) in the test on MDA-MB-231; 23.8 µM (inactive) in the test with SNB-75; 16.4 µM (inactive) in the test on A498; 2.17 µM (inactive) in the test with SK-OV-3; 0.16 µM (active) in the test on LOX IMVI; 4.57 µM (inactive) in the test on U-251. Besides, the GI50 is 11.7 µM (inactive) with HOP-62; 2.59 µM (inactive) in the test on NCI-H226; 12.7 µM (inactive) with SNB-19; 4.47 µM (inactive) in the test on MCF7; 2.49 µM (inactive) with NCI/ADR-RES; 2.53 µM (inactive) in the test with ACHN. The GI50 in the test with SF-539 was 2.38 µM (inactive); with COLO 205, 4.09 µM (inactive); with A549, 4.85 µM (inactive); with MOLT-4, 22 µM (inactive); with Malme-3M, 4.04 µM (inactive); in the test on SR, 2.68 µM (inactive).
As to `O=C1OC(c2cccc(C(F)(F)F)c2)(c2cccc(C(F)(F)F)c2)c2ccc3ccccc3c21`, the GI50 is > 10 µM (inactive) with SNB-75; > 10 µM (inactive) in the test with A498; > 10 µM (inactive) in the test with SK-OV-3; > 10 µM (inactive) in the test with LOX IMVI; 8.39 µM (inactive) in the test with U-251; > 10 µM (inactive) in the test with DLD-1. Besides, the GI50 with HOP-62 was > 10 µM (inactive); in the test on NCI-H226, 85.5 µM (inactive); in the test on SNB-19, 11.2 µM (inactive); with ACHN it was 3.64 µM (inactive); with SF-539, > 100 µM (inactive); in the test with COLO 205, > 10 µM (inactive). In addition, the GI50 with A549 is > 10 µM (inactive); in the test on MOLT-4, 4.66 µM (inactive); with Malme-3M, 4.79 µM (inactive); in the test on SR, > 10 µM (inactive).
For `O=c1[nH]c(C2CCCCC2)nc2ccc(Cl)cc12`, the GI50 in the test with M19-MEL is > 100 µM (inactive); in the test with SNB-75, 38.3 µM (inactive); with SK-OV-3, > 100 µM (inactive); with U-251, > 100 µM (inactive); in the test on NCI-H226 it was > 100 µM (inactive); with SNB-19, > 100 µM (inactive). Further, the GI50 in the test on ACHN, with SF-539, in the test with COLO 205, with A549, with MOLT-4 and in the test on Malme-3M was > 100 µM (inactive) each time. The GI50 with SR is > 100 µM (inactive).
As for `COc1ccccc1CC(C)N` (stereo unspecified), the GI50 with SNB-75, in the test with A498, in the test on SK-OV-3, in the test with LOX IMVI, in the test on U-251 and in the test with DLD-1 was > 100 µM (inactive) in each case. Besides, the GI50 with HOP-62, in the test with NCI-H226, in the test on SNB-19, in the test on ACHN, with SF-539 and in the test on COLO 205 was > 100 µM (inactive) in each case. In addition, the GI50 in the test with A549 and with Malme-3M was > 100 µM (inactive) throughout.
With `CCOC(=O)c1c(N2CCCC2)[nH]c(=O)c(C(c2cccs2)c2c(O)c(C(=O)OCC)c(N3CCCC3)[nH]c2=O)c1O`, the GI50 with MDA-MB-231, with SNB-75, in the test with A498, in the test on SK-OV-3, with LOX IMVI and in the test with U-251 was > 100 µM (inactive) each time. For the same compound, the GI50 in the test on HOP-62, in the test with NCI-H226, with SNB-19, in the test on MCF7, in the test on NCI/ADR-RES and with ACHN was > 100 µM (inactive) throughout. Also, the GI50 in the test with SF-539, in the test on COLO 205, with A549, in the test on MOLT-4, in the test with Malme-3M and in the test with SR was > 100 µM (inactive) in each case.
